These results are taken from publication PMC9319939, “Siccanin Is a Dual-Target Inhibitor of Plasmodium falciparum Mitochondrial Complex II and Complex III” (Pharmaceuticals, 2022).

Experiment [1] deals with Dd2_ELQ300 (cyt b-I22L mutation at Qi site). Put plainly: Growth inhibition of Dd2_ELQ300 (ELQ300-resistant). Format: cell-based. To be noted: Plasmodium falciparum, read-out: Growth inhibition EC50, ELQ300. As to the method:
(§1) P. falciparum 3D7-yDHODH was prepared and maintained as described previously. P. falciparum Dd2, and Dd2-derived mutant strains were kindly provided by David A. Fidock, and maintained at Nagasaki University essentially as described in reference, except without supplementation with WR99210.
(§2) Synchronized ring-form parasites (0.3% parasitemia) were prepared in complete medium containing different concentration of various compounds (at a fixed final DMSO concentration of 0.1% (v/v)) and distributed to 96-well plates at 100 μL/well. After 72 h of incubation, parasite growth was monitored by the previously described lactate dehydrogenase (PfLDH)-based assay method; plates were read using a SpectraMax® Paradigm spectrophotometer (Molecular Devices, Inc.; San Jose, CA, USA). EC50 values were calculated using Prism® ver.6.01 (GraphPad; San Diego, CA, USA). Values are presented as the means of three independent experiments.

The target of experiment [2] is mammalian complex I and III (Sus scrofa, UniProt F1RNZ1+P24964). Kind of experiment: NADH-cytochrome c reductase activity in porcine mitochondria. Format: biochemical. As to the method: Porcine mitochondria were prepared as described previously. NADH-cytochrome c (NADH-cyt c) activity was measured at 25 °C in 1 mL of the reaction mixture containing 1 mM MgCl2, 2 mM KCN, and 20 μM cytochrome c in 30 mM potassium phosphate buffer, pH 7.5. Activity was measured by recording the absorbance change of cytochrome c at 550 nm after the reaction was initiated by the addition of 20 μM NADH. Various concentrations of siccanin dissolved in DMSO were added to reaction mixtures 5 min before the initiation of the reactions. Selectivity was calculated as the ratio of mammalian to P. falciparum IC50s.
Sequence of mammalian complex I and III (F1RNZ1 entry or part of it): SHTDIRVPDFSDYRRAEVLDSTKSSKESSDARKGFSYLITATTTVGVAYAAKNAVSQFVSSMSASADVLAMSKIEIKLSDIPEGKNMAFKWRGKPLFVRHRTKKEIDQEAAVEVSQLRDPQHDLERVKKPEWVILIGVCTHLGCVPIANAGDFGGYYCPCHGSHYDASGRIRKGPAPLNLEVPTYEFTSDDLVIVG
Sequence of mammalian complex I and III (P24964 whole entry): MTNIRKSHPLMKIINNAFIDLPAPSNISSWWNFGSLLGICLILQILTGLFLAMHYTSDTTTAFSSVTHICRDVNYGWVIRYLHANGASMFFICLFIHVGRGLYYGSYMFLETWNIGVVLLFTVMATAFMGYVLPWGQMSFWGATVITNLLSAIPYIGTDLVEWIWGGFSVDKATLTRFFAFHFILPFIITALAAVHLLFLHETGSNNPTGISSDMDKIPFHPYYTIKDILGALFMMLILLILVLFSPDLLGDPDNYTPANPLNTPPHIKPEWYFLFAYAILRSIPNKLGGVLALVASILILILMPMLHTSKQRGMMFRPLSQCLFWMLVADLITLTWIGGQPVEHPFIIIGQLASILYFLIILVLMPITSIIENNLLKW
Sequence of mammalian complex I and III (F1SKM0 entry or part of it, further chain): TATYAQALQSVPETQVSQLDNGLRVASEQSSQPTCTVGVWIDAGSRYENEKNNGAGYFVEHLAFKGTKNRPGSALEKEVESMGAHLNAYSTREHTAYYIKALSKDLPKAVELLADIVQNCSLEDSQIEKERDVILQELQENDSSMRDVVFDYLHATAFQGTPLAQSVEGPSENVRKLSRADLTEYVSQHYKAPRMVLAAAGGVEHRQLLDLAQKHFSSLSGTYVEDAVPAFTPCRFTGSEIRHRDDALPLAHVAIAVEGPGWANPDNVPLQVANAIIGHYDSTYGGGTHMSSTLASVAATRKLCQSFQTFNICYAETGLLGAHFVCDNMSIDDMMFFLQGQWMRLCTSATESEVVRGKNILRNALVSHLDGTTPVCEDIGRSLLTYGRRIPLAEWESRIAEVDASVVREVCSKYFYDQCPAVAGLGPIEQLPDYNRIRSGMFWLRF

In experiment [3] the test system is P. falciparum (synchronized ring-form parasites). Put plainly: Assessment of parasite survival, Giemsa-stained smears. Format: cell-based, Plasmodium falciparum. As to conditions: 50 µM siccanin; 16, 24, 32, 48 h. The protocol:
Synchronized ring-form parasites (2% parasitemia) were prepared in complete medium containing 50 µM siccanin (at a fixed final DMSO concentration of 0.1% (v/v)) and distributed to 24-well plates at 1 mL/well. After incubation for 16, 24, 32, and 48 h, parasitemia was assessed under the microscope using thin blood smears stained with Giemsa.

For experiment [4], the system named is P. falciparum 3D7 strain. Put plainly: Isobologram analysis with atovaquone and siccanin, PfLDH-based. Format: cell-based, Plasmodium falciparum. The protocol: The effect of the combination of atovaquone and siccanin was evaluated using isobologram analysis to evaluate the synergy, additivity, or antagonism between the two compounds [51, 83]. Synchronized ring-form parasites (0.3% parasitemia) were prepared in complete medium containing different concentrations of siccanin and atovaquone (at a fixed final DMSO concentration of 0.2% (v/v)) and distributed to 96-well plates at 100 μL/well. After 72 h of incubation, parasite growth was monitored by the previously described PfLDH-based assay using a SpectraMax® Paradigm spectrophotometer. IC50 values were calculated using Prism® ver.6.01. Data represent the means of three independent experiments, each performed in triplicate. The isobologram analysis was performed as described previously. For each combination assay, IC50s were calculated from each culture of P. falciparum grown in the presence of atovaquone or siccanin alone and in combination of various concentrations of the two compounds. The fractional inhibitory concentration (FIC) value was determined using the following equation: FIC =IC50 of compound in mixture/IC50 of compound alone
The combination index (CI) value was determined using the following equation: CI =IC50 of atovaquone in mixture/IC50 of atovaquone alone+IC50 of siccanin in mixture/IC50 of siccanin alone […]

Experiment [5] deals with Dd2_DHIQ (ATP4-G358S mutation). Kind of experiment: Growth inhibition of Dd2_DHIQ (cipargamin-resistant). The class given is cell-based. To be noted: Plasmodium falciparum, read-out: Growth inhibition EC50, DHIQ. As to the method:
as §1, §2

Experiment [6] relates to P. falciparum 3D7-yDHODH. Put plainly: Growth inhibition of yeast DHODH-expressing strain. The class given is cell-based. As to conditions: Plasmodium falciparum, 3D7, read-out: Growth inhibition EC50, 3D7-yDHODH. The protocol:
as §1, §2

The subject of experiment [7] is Dd2_GNF (Carl-I1139K mutation). Put plainly: Growth inhibition of Dd2_GNF (GNF156-resistant). Format: cell-based. As to conditions: Plasmodium falciparum, read-out: Growth inhibition EC50, GNF. As to the method:
as §1, §2

What is called EC50 is the concentration that produces a half-maximal response. The IC50 is the midpoint of a concentration-inhibition curve. For the compound `Cc1cc(O)c2c(c1)O[C@@]1(C)CC[C@H]3C(C)(C)CCC[C@]34CO[C@@H]2[C@H]41` [Siccanin], the EC50 came to 18.7 µM in experiment [1], 16.4 µM in experiment [5], 10.3 µM in experiment [6] and 13.4 µM in experiment [7]. For the same compound, in experiment [2] (concentrations as high as 500 µM), the “Effect on mammalian complex I and III” value is “did not inhibit”. Moreover, the IC50 in experiment [2] (read-out: Siccanin IC50, Mammal, Complex III, NADH-cytochrome c reductase, porcine mitochondria) is above 500 µM. In experiment [3], the “Live parasites under the microscope” value was “could not detect live parasites”. For the same compound, the Combination index in experiment [4] (combination of siccanin and atovaquone, 3D7, 72 h) is recorded as 1.0. For the same compound, the “Combinatory effect with atovaquone” value in experiment [4] (isobologram, 3D7) is on record as “additive effect”.
